# Reference: article PMC5939068 (Proceedings of the National Academy of Sciences of the …, 2018)
# Target: 52SFK (HAdV-52 short fiber knob) (human adenovirus 52, UniProt A0MK70)
# Experiment: SPR with immobilized knob
# Format: binding
# Conditions: oligoSia in solution
structure (smiles),measurement,value
"CC(=O)N[C@H]1[C@H]([C@H](O)[C@H](O)CO)O[C@@](O[C@H](CO)[C@@H](O)[C@@H]2OC(O)(C(=O)O)C[C@H](O)[C@H]2NC(C)=O)(C(=O)O)C[C@@H]1O (stereo partly shown) [DP2, disialic acid]",SPR with immobilized knob,the biggest increase in affinity was shown between DP2 and DP3
